Patent US8785445B2 (Array BioPharma Inc., priority 2008, dated 2014)

Each molecule was assayed against T1, human DP2 (Homo sapiens, UniProt Q9Y5Y4) (assay: DP-2 binding inhibition assay (3H-PGD2, membranes of DP2-expressing K562 cells)). Conditions: 0.1% BSA, read-out: EC50 (nM) 0.1% BSA.
T1 construct: expressed in transfected cells; membranes prepared
T1 sequence (Q9Y5Y4 1-395): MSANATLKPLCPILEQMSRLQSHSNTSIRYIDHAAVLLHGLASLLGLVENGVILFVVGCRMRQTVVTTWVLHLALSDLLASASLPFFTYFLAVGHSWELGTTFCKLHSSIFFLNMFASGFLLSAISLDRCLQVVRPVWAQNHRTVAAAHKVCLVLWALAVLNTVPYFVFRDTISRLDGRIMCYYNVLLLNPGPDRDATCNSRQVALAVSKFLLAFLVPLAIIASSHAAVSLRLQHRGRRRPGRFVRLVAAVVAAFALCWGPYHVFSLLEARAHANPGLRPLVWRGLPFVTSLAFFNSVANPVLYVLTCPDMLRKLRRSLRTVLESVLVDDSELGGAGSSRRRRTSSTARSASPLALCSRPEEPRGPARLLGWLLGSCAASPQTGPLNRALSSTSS
Procedure, shortened: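 Membranes from K562 clones stably expressing human DP2 were incubated 60 min at room temperature with 3H-PGD2 and compound, with 0.1% BSA, 1% HSA or 4% HSA, then filtered and counted.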
`N#Cc1cc2c(cc1Oc1ccc(C(=O)Nc3ccc4[nH]ncc4c3)cc1)OCCC2C(=O)O` (stereo not shown) [Example 192, 7-(4-(1H-indazol-5-ylcarbamoyl)phenoxy)-6-cyanochroman-4-carboxylic acid] gave an EC50 of 492 nM. Work on `N#Cc1cc2c(cc1Oc1ccc(C(=O)Nc3ccc4cn[nH]c4c3)cc1)OCCC2C(=O)O` (stereo not shown) [Example 193, 7-(4-(1H-indazol-6-ylcarbamoyl)phenoxy)-6-cyanochroman-4-carboxylic acid] yielded an EC50 of 36.7 nM. In the case of `N#Cc1cc2c(cc1Oc1ccc(C(=O)Nc3nc4ccccc4s3)cc1)OCCC2C(=O)O` (stereo not shown) [Example 194, 7-(4-(benzo[d]thiazol-2-ylcarbamoyl)phenoxy)-6-cyanochroman-4-carboxylic acid], the EC50 was 10.7 nM. `N#Cc1cc2c(cc1Oc1ccc(C(=O)Nc3nc4ccc(F)cc4s3)cc1)OCCC2C(=O)O` (stereo not shown) [Example 195, 6-cyano-7-(4-(6-fluorobenzo[d]thiazol-2-ylcarbamoyl)phenoxy) chroman-4-carboxylic acid] showed an EC50 of 12.9 nM. With `N#Cc1cc2c(cc1Oc1ccc(C(=O)Nc3nc4ccc(Cl)cc4s3)cc1)OCCC2C(=O)O` (stereo not shown) [Example 196] the EC50 was 11 nM. `COc1ccc2nc(NC(=O)c3ccc(Oc4cc5c(cc4C#N)C(C(=O)O)CCO5)cc3)sc2c1` (stereo not shown) [Example 197, 6-cyano-7-(4-(6-methoxybenzo[d]thiazol-2-ylcarbamoyl)phenoxy) chroman-4-carboxylic acid] was tested, and the EC50 was 9.3 nM. Work on `Cc1noc(C)c1CCNC(=O)c1ccc(Oc2cc3c(cc2C#N)C(C(=O)O)CCO3)cc1` (stereo not shown) [Example 198, 6-cyano-7-(4-(2-(3,5-dimethylisoxazol-4-yl)ethylcarbamoyl)phenoxy)chroman-4-carboxylic acid] yielded an EC50 of 1240 nM. For `N#Cc1cc2c(cc1Oc1ccc(C(=O)Nc3nc4c(Cl)cccc4s3)cc1)OCCC2C(=O)O` (stereo not shown) [Example 199], the EC50 was 10.8 nM. In the case of `Cc1cc2nc(NC(=O)c3ccc(Oc4cc5c(cc4C#N)C(C(=O)O)CCO5)cc3)sc2cc1C` (stereo not shown) [Example 200, 6-cyano-7-(4-(5,6-dimethylbenzo[d]thiazol-2-ylcarbamoyl)phenoxy) chroman-4-carboxylic acid], the EC50 was 7.6 nM. `N#Cc1cc2c(cc1Oc1ccc(C(=O)Nc3nc4ccc(C(F)(F)F)cc4s3)cc1)OCCC2C(=O)O` (stereo not shown) [Example 201, 6-cyano-7-(4-(6-(trifluoromethyl)benzo[d]thiazol-2-ylcarbamoyl)phenoxy)chroman-4-carboxylic acid] showed an EC50 of 5.1 nM. Molecule `N#Cc1cc2c(cc1Oc1ccc(C(=O)Nc3nc4c(F)cc(F)cc4s3)cc1)OCCC2C(=O)O` (stereo not shown) [Example 202, 6-cyano-7-(4-(4,6-difluorobenzo[d]thiazol-2-ylcarbamoyl)phenoxy) chroman-4-carboxylic acid] has an EC50 of 24.5 nM. For `N#Cc1cc2c(cc1Oc1ccc(C(=O)Nc3nc4ccccc4o3)cc1)OCCC2C(=O)O` (stereo not shown) [Example 203, 7-(4-(benzo[d]oxazol-2-ylcarbamoyl)phenoxy)-6-cyanochroman-4-carboxylic acid], the EC50 was 69 nM.

Same assay, conditions: 1% HSA, read-out: EC50 (nM) 1% HSA
For `N#Cc1cc2c(cc1Oc1ccc(C(=O)Nc3nc4ccccc4s3)cc1)OCCC2C(=O)O` (stereo not shown) [Example 194, 7-(4-(benzo[d]thiazol-2-ylcarbamoyl)phenoxy)-6-cyanochroman-4-carboxylic acid], the EC50 was 1240 nM. `N#Cc1cc2c(cc1Oc1ccc(C(=O)Nc3nc4ccc(F)cc4s3)cc1)OCCC2C(=O)O` (stereo not shown) [Example 195, 6-cyano-7-(4-(6-fluorobenzo[d]thiazol-2-ylcarbamoyl)phenoxy) chroman-4-carboxylic acid] gave an EC50 of 194 nM. `N#Cc1cc2c(cc1Oc1ccc(C(=O)Nc3nc4ccc(Cl)cc4s3)cc1)OCCC2C(=O)O` (stereo not shown) [Example 196] showed an EC50 of 352 nM. In the case of `COc1ccc2nc(NC(=O)c3ccc(Oc4cc5c(cc4C#N)C(C(=O)O)CCO5)cc3)sc2c1` (stereo not shown) [Example 197, 6-cyano-7-(4-(6-methoxybenzo[d]thiazol-2-ylcarbamoyl)phenoxy) chroman-4-carboxylic acid], the EC50 was 146 nM.

Same assay, conditions: 4% HSA, read-out: EC50 (nM) 4% HSA
`N#Cc1cc2c(cc1Oc1ccc(C(=O)Nc3nc4ccc(C(F)(F)F)cc4s3)cc1)OCCC2C(=O)O` (stereo not shown) [Example 201, 6-cyano-7-(4-(6-(trifluoromethyl)benzo[d]thiazol-2-ylcarbamoyl)phenoxy)chroman-4-carboxylic acid] showed an EC50 of 355 nM. `N#Cc1cc2c(cc1Oc1ccc(C(=O)Nc3nnc(-c4ccc(Cl)cc4)s3)cc1)OCCC2C(=O)O` (stereo not shown) [Example 204, 7-(4-(5-(4-chlorophenyl)-1,3,4-thiadiazol-2-ylcarbamoyl)phenoxy)-6-cyanochroman-4-carboxylic acid] showed an EC50 of 3440 nM. Molecule `Cc1ccc(-c2csc(NC(=O)c3ccc(Oc4cc5c(cc4C#N)C(C(=O)O)CCO5)cc3)n2)cc1` (stereo not shown) [Example 205, 6-cyano-7-(4-(4-p-tolylthiazol-2-ylcarbamoyl)phenoxy) chroman-4-carboxylic acid] has an EC50 of 96.2 nM. `O=C(Nc1nc2ccc(Cl)cc2s1)c1ccc(Oc2cc3c(cc2Cl)C(C(=O)O)CCO3)cc1` (stereo not shown) [Example 207, 6-chloro-7-(4-(6-chlorobenzo[d]thiazol-2-ylcarbamoyl)phenoxy) chroman-4-carboxylic acid] was tested, and the EC50 was 105 nM. Molecule `O=C(Nc1nc2cc(Cl)ccc2o1)c1ccc(Oc2cc3c(cc2Cl)C(C(=O)O)CCO3)cc1` (stereo not shown) [Example 208, 6-chloro-7-(4-(5-chlorobenzo[d]oxazol-2-ylcarbamoyl)phenoxy) chroman-4-carboxylic acid] has an EC50 of 736 nM. In the case of `O=C(Nc1ccc(-c2ccc(Cl)cc2)nn1)c1ccc(Oc2cc3c(cc2Cl)C(C(=O)O)CCO3)cc1` (stereo not shown) [Example 209, 6-chloro-7-(4-(6-(4-chlorophenyl)pyridazin-3-ylcarbamoyl)phenoxy) chroman-4-carboxylic acid], the EC50 was 207 nM. In the case of `O=C(NC1CCN(c2cccc(C(F)(F)F)n2)CC1)c1ccc(Oc2cc3c(cc2Cl)C(C(=O)O)CCO3)cc1` (stereo not shown) [Example 211], the EC50 was 421 nM. Molecule `O=C(NCCc1cccn1-c1ccc(C(F)(F)F)cc1)c1ccc(Oc2cc3c(cc2Cl)C(C(=O)O)CCO3)cc1` (stereo not shown) [Example 212, 6-chloro-7-(4-(2-(1-(4-(trifluoromethyl)phenyl)-1H-pyrrol-2-yl)ethylcarbamoyl)phenoxy) chroman-4-carboxylic acid] has an EC50 of 3010 nM. For `CCOc1ncccc1CCNC(=O)c1ccc(Oc2cc3c(cc2Cl)C(C(=O)O)CCO3)cc1` (stereo not shown) [Example 213, 6-chloro-7-(4-(2-(2-ethoxypyridin-3-yl)ethylcarbamoyl)phenoxy) chroman-4-carboxylic acid], the EC50 was 188 nM. `COc1ccc(-c2cccc(CCNC(=O)c3ccc(Oc4cc5c(cc4Cl)C(C(=O)O)CCO5)cc3)n2)cc1` (stereo not shown) [Example 214, 6-chloro-7-(4-(2-(6-(4-methoxyphenyl)pyridin-2-yl)ethylcarbamoyl)phenoxy)chroman-4-carboxylic acid] gave an EC50 of 1350 nM. `COc1ccc(-c2cccc(CCNC(=O)c3ccc(Oc4cc5c(cc4Cl)C(C(=O)O)CCO5)cc3)n2)cn1` (stereo not shown) [Example 215, 6-chloro-7-(4-(2-(6′-methoxy-2,3′-bipyridin-6-yl)ethylcarbamoyl)phenoxy)chroman-4-carboxylic acid] gave an EC50 of 1600 nM. For `O=C(NCCn1ccc(Cl)cc1=O)c1ccc(Oc2cc3c(cc2Cl)C(C(=O)O)CCO3)cc1` (stereo not shown) [Example 216, 6-chloro-7-(4-(2-(4-chloro-2-oxopyridin-1(2H)-yl)ethylcarbamoyl)phenoxy)chroman-4-carboxylic acid], the EC50 was 2230 nM. `COc1ccc(CCNC(=O)c2ccc(Oc3cc4c(cc3Cl)C(C(=O)O)CCO4)cc2)cn1` (stereo not shown) [Example 217, 6-chloro-7-(4-(2-(6-methoxypyridin-3-yl)ethylcarbamoyl)phenoxy) chroman-4-carboxylic acid] was tested, and the EC50 was 1370 nM. In the case of `COc1cccc(CCNC(=O)c2ccc(Oc3cc4c(cc3Cl)C(C(=O)O)CCO4)cc2)n1` (stereo not shown) [Example 218, 6-chloro-7-(4-(2-(6-methoxypyridin-2-yl)ethylcarbamoyl)phenoxy) chroman-4-carboxylic acid], the EC50 was 404 nM. For `O=C(NCCn1ccc(-c2ccc(Cl)cc2)n1)c1ccc(Oc2cc3c(cc2Cl)C(C(=O)O)CCO3)cc1` (stereo not shown) [Example 219, 6-chloro-7-(4-(2-(3-(4-chlorophenyl)-1H-pyrazol-1-yl)ethylcarbamoyl)phenoxy) chroman-4-carboxylic acid], the EC50 was 1370 nM. In the case of `COc1ncc(CCNC(=O)c2ccc(Oc3cc4c(cc3Cl)C(C(=O)O)CCO4)cc2)c(OC)n1` (stereo not shown) [Example 220, 6-chloro-7-(4-(2-(2,4-dimethoxypyrimidin-5-yl)ethylcarbamoyl)phenoxy) chroman-4-carboxylic acid], the EC50 was 379 nM. `O=C(NCCc1cccc(-c2ccccc2Cl)n1)c1ccc(Oc2cc3c(cc2Cl)C(C(=O)O)CCO3)cc1` (stereo not shown) [Example 221, 6-chloro-7-(4-(2-(6-(2-chlorophenyl)pyridin-2-yl)ethylcarbamoyl)phenoxy) chroman-4-carboxylic acid] gave an EC50 of 962 nM. `CC(C)(C)c1csc(CCNC(=O)c2ccc(Oc3cc4c(cc3Cl)C(C(=O)O)CCO4)cc2)n1` (stereo not shown) [Example 222, 7-(4-(2-(4-tert-butylthiazol-2-yl)ethylcarbamoyl)phenoxy)-6-chlorochroman-4-carboxylic acid] was tested, and the EC50 was 1070 nM. Work on `O=C(NCCc1cccnc1C1CC1)c1ccc(Oc2cc3c(cc2Cl)C(C(=O)O)CCO3)cc1` (stereo not shown) [Example 223, 6-chloro-7-(4-(2-(2-cyclopropylpyridin-3-yl)ethylcarbamoyl)phenoxy) chroman-4-carboxylic acid] yielded an EC50 of 210 nM. With `O=C(NCCc1cccnc1-c1ccccc1Cl)c1ccc(Oc2cc3c(cc2Cl)C(C(=O)O)CCO3)cc1` (stereo not shown) [Example 224, 6-chloro-7-(4-(2-(2-(2-chlorophenyl)pyridin-3-yl)ethylcarbamoyl)phenoxy) chroman-4-carboxylic acid] the EC50 was 998 nM. `CN(C)c1ncccc1CCNC(=O)c1ccc(Oc2cc3c(cc2Cl)C(C(=O)O)CCO3)cc1` (stereo not shown) [Example 225, 6-chloro-7-(4-(2-(2-(dimethylamino)pyridin-3-yl)ethylcarbamoyl)phenoxy) chroman-4-carboxylic acid] gave an EC50 of 664 nM. With `O=C(NCCc1cccnc1N1CCCCC1)c1ccc(Oc2cc3c(cc2Cl)C(C(=O)O)CCO3)cc1` (stereo not shown) [Example 226, 6-chloro-7-(4-(2-(2-(piperidin-1-yl)pyridin-3-yl)ethylcarbamoyl)phenoxy) chroman-4-carboxylic acid] the EC50 was 1920 nM. Work on `COc1ncccc1CCNC(=O)c1ccc(Oc2cc3c(cc2Cl)C(C(=O)O)CCO3)cc1` (stereo not shown) [Example 227, 6-chloro-7-(4-(2-(2-methoxypyridin-3-yl)ethylcarbamoyl)phenoxy) chroman-4-carboxylic acid] yielded an EC50 of 857 nM. For `CC(C)Oc1ncccc1CCNC(=O)c1ccc(Oc2cc3c(cc2Cl)C(C(=O)O)CCO3)cc1` (stereo not shown) [Example 228, 6-chloro-7-(4-(2-(2-isopropoxypyridin-3-yl)ethylcarbamoyl)phenoxy) chroman-4-carboxylic acid], the EC50 was 195 nM.
